Assay results published in patent US9012216B2, “Methods of determining efficacy of cyclodextrin therapy” (Washington University, priority 2008, dated 2015).

Assay: Stability of oxysterols in NPC plasma samples processed with/without BHT at 4° C. or room temperature
Type: physicochemical, human
Description: Treatments include: NPC plasma samples treated with BHT (“BHT”), no BHT (“No BHT”), at 4° C. with BHT (“4 BHT”), at 4° C. without BHT (“4 No BHT”), at room temperature (20-21° C.) with BHT (“RT BHT”), and at room temperature (20-21° C.) without BHT (“RT No BHT”).
Treatments include: NPC plasma samples treated overnight with BHT (“BHT”), no BHT (“No BHT”), at 4° C. with BHT (“4 BHT”), at 4° C. without BHT (“4 No BHT”), at room temperature (20-21° C.) with BHT (“RT BHT”), and at room temperature (20-21° C.) without BHT (“RT No BHT”).
The stability of the oxysterols triol and 7-keto prepared in accordance with the methods of the present disclosure are shown in FIGS. 7A and 7B. Patient's having confirmed NPC disease were used to obtain plasma biological samples. The plasma biological samples were processed as described in Examples 1-4 except that some of the samples were not treated with butylated hydroxytoluene (BHT, a known antioxidant that prevents further oxidation of cholesterol), and either treated at room temperature or at 4° C. with and without BHT.

Row | Structure (SMILES) | Stability in plasma samples: ability to isolate and quantify
1 | CC(C)CCC[C@@H](C)[C@H]1CC[C@H]2[C@@H]3C[C@@H](O)[C@@]4(O)C[C@@H](O)CC[C@]4(C)[C@H]3CC[C@]12C [triol, cholestane-3β,5α,6β-triol] | without adversely affecting
2 | CC(C)CCC[C@@H](C)[C@H]1CC[C@H]2[C@@H]3C(=O)C=C4C[C@@H](O)CC[C@]4(C)[C@H]3CC[C@]12C [7-keto, 7-ketocholesterol] | without adversely affecting
